This is an account of results in paper PMC4256047, “Structural and Functional Profiling of Environmental Ligands for Estrogen Receptors” (Environmental Health Perspectives, 2014).

In assay [1] the target is T1, human ERα (Homo sapiens, UniProt P03372).
T1 sequence (P03372 1-595): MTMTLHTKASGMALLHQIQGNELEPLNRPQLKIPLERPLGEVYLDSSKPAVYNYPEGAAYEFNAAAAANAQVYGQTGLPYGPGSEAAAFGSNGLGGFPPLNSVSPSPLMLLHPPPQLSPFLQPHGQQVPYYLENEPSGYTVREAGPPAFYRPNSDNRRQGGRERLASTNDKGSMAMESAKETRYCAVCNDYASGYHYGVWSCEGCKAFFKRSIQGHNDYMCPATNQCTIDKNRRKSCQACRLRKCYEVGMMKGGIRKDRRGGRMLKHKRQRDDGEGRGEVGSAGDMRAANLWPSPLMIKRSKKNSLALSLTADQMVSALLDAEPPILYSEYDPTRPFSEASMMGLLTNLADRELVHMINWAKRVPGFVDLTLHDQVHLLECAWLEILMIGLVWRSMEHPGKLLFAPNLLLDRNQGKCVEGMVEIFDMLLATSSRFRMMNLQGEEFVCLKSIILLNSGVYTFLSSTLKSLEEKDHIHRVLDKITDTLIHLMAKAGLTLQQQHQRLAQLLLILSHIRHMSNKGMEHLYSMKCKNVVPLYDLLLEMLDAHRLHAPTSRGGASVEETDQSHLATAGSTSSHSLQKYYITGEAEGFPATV
As to the kind of experiment: HGELN-ERα luciferase transactivation assay. To be noted: for relative activation of the two ER subtypes: HGELN-ERα versus HGELN-ERβ, full-length receptors; for agonistic potential in words, FL-ERα: HGELN-ERα, full-length receptor.

Assay [2] relates to ΔAB-ERα. As to the kind of experiment: HGELN-ΔAB-ERα luciferase transactivation assay.
Assay [3] relates to ΔAB-ERβ. The assay is described as follows: HGELN-ΔAB-ERβ luciferase transactivation assay.
For assay [4], the target named is wild-type ERβ LBD (Homo sapiens, UniProt Q92731). As to the kind of experiment: fluorescence anisotropy, SRC-1 NR2 peptide recruitment by ERβ LBD. To be noted: class from Kd of SRC-1 peptide for ERβ LBD.
In assay [5] the target is T2, wild-type ERα LBD (Homo sapiens, UniProt P03372).
T2 sequence (P03372 302-552): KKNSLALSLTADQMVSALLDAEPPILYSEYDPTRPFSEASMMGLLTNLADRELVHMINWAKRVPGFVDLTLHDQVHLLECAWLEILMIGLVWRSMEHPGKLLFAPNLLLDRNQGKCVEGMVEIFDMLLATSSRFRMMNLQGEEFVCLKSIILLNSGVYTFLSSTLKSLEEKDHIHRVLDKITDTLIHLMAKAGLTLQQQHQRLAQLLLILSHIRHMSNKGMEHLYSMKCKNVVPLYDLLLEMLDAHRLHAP
The assay is described as follows: fluorescence anisotropy, SRC-1 NR2 peptide recruitment by ERα LBD. The following applies: class from Kd of SRC-1 peptide for ERα LBD. On the technique in general: Fluorescence polarisation rises when a labelled molecule tumbles more slowly, as on binding a larger partner.

Assay [6] has as its target human ERβ (Homo sapiens, UniProt Q92731). The assay is described as follows: HGELN-ERβ luciferase transactivation assay. The following applies: full-length receptor.
Assay [7] has as its system ER. On the set-up: method as in Wilson et al. 2004. The following applies: ref Wilson et al. 2004; cited from earlier work.
Assay [8] addresses T3, wt-ERβ LBD (wild-type estrogen receptor β ligand-binding domain, amino acids 261–502) (human, UniProt Q92731 261-502).
T3 construct: also called wild-type ERβ LBD; apo-ERβ
The assay is described as follows: fluorescence polarisation; fluorescence anisotropy as a1, with BP-2 at 2 molar equivalents of the highest protein concentration. To be noted: both partners purified.

The target of assay [9] is T4, wt-ERα LBD (wild-type estrogen receptor α ligand-binding domain, amino acids 302–552) (human, UniProt P03372 302-552).
T4 construct: also called wild-type ERα LBD; apo-ERα
T4 sequence (looked up): T2 sequence (P03372 302-552)
As to the kind of experiment: fluorescence polarisation; fluorescence anisotropy as a1, with 4-OP at 2 molar equivalents of the highest protein concentration. The following applies: both partners purified.

Assay [10] addresses T3, wt-ERβ LBD (wild-type estrogen receptor …). As to the kind of experiment: fluorescence polarisation; fluorescence anisotropy as a1, with α-ZA at 2 molar equivalents of the highest protein concentration. To be noted: both partners purified.
The target in assay [11] is T4, wt-ERα LBD (wild-type estrogen receptor …). Described as above. To be noted: both partners purified.

Primed or numbered codes have the meaning given here. Where no end group is shown, it is not given here. fluorescein″ = fluorescein label on the peptide (N-terminal, fluorescein-labeled peptide)

wild-type ERβ LBD, sequence (Q92731 261-502): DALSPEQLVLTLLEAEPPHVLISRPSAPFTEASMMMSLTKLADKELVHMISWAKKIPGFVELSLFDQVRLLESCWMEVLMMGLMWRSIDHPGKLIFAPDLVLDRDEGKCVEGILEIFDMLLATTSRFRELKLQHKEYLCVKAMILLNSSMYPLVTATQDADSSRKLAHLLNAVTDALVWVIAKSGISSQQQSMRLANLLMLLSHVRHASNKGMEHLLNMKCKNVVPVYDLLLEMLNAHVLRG
T3 sequence (Q92731 261-502): as above
human ERβ, sequence (Q92731 whole entry): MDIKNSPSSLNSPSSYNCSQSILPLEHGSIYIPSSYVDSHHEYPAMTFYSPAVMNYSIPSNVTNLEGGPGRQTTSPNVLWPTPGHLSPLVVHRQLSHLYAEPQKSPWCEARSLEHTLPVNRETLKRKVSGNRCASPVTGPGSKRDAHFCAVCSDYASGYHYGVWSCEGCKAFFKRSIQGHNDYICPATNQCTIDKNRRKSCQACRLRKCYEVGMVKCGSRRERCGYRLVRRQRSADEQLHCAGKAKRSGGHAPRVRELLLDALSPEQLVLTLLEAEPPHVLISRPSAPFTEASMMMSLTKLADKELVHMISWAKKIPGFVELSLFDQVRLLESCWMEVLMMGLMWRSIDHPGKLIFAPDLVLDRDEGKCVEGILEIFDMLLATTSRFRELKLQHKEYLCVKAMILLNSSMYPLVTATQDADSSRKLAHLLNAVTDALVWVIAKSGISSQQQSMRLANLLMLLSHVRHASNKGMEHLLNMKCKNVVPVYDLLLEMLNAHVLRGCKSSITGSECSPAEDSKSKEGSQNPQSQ

For the molecule `Oc1ccc(C(=C(Cl)Cl)c2ccc(O)cc2)cc1` [BPC, bisphenol C], the “relative activation of the two ER subtypes” value in [1] is listed as “activated ERα more efficiently than ERβ”.

As to `O=C(c1ccc(O)cc1O)c1ccc(O)cc1O` [BP-2, benzophenone-2], in [1], the “relative activation of the two ER subtypes” value was “activated the two ER subtypes equally” and the “agonistic potential in words, FL-ERα” value is recorded as “full agonist”. Further, the “agonistic potential in words, ΔAB-ERα” value in assay [2] (HGELN-ΔAB-ERα) is “full agonist”. Moreover, the “AF-1 dependence of activity” value in assay [2] (full-length versus ΔAB (AF-1 deleted) ERs) was “fully AF-1–independent activity”. Further, in assay [3], the “agonistic potential in words, ΔAB-ERβ” value is reported as “full agonist”. In addition, the “ligand class by SRC-1 peptide recruitment, ERβ” value (from here on “ligand class … ERβ”) in assay [4] is recorded as “strong agonists (strong agonists (Kd ≤ 1 μM))”. Besides, the “ligand class by SRC-1 peptide recruitment, ERα” value (from here on “ligand class … ERα”) in [5] is on record as “strong agonists (strong agonists (Kd ≤ 1 μM))”. Moreover, in assay [6], the “agonistic potential in words, FL-ERβ” value is “full agonist”.

Turning to `CCCCOC(=O)c1ccc(O)cc1` [Butylparaben, butylparaben], the “ligand class … ERβ” value in assay [4] is listed as “partial agonists (partial agonists (1 μM ≤ Kd ≤ values for apo-ERα or -ERβ))”.

In the case of `CC(C)(C)CC(C)(C)c1ccc(O)cc1` [4-OP, 4-tert-octylphenol], the “ligand class … ERβ” value in assay [4] was “partial agonists (partial agonists (1 μM ≤ Kd ≤ values for apo-ERα or -ERβ))”.

Turning to `C[C@H]1CCC[C@H](O)CCCCCc2cc(O)cc(O)c2C(=O)O1` [α-ZA, α-zearalanol], the “agonistic potential in words, FL-ERα” value in [1] is on record as “efficiently activated”. Moreover, in [5], the “ligand class … ERα” value is “strong agonists (strong agonists (Kd ≤ 1 μM))”.

For the molecule `ClC(Cl)=C(c1ccc(Cl)cc1)c1ccc(Cl)cc1` [DDE, dichlorodiphenyldichloroethylene], the “ligand class … ERα” value in [5] is “partial agonists (partial agonists (1 μM ≤ Kd ≤ values for apo-ERα or -ERβ))”.

For the molecule `Oc1ccc(C(c2ccc(O)cc2)C(Cl)(Cl)Cl)cc1` [HPTE, 2,2-bis(p-hydroxyphenyl)-1,1,1-trichloroethane], the “ER activity reported in other studies” value in assay [7] is “agonistic properties”.

With `CC(C)(c1cc(Cl)c(O)c(Cl)c1)c1cc(Cl)c(O)c(Cl)c1` [TCBPA, tetrachlorobisphenol A], in assay [3], the “agonistic potential in words, ΔAB-ERβ” value is on record as “ERβ antagonists”. For the same molecule, the “agonistic potential in words, FL-ERβ” value in assay [6] is listed as “ERβ antagonists”.

In the case of `CC(C)(c1ccc(O)cc1)c1ccc(O)cc1` [BPA, bisphenol A], the “ligand class … ERβ” value in assay [4] is “partial agonists (partial agonists (1 μM ≤ Kd ≤ values for apo-ERα or -ERβ))”. Further, the “ligand class … ERα” value in assay [5] is recorded as “partial agonists (partial agonists (1 μM ≤ Kd ≤ values for apo-ERα or -ERβ))”.

B1: fluorescein-RHKILHRLLQEGS peptide corresponding to the NR box 2-binding motif of SRC-1 (peptide)
peptide: {fluorescein″}-RHKILHRLLQEGS
notes: also called fluorescein-labeled SRC-1 NR2 peptide; SRC-1 NR2 peptide; source: synthetic peptide, bought: EZbiolab
With B1, the Kd (commonly the free concentration of one partner at which half of the binding sites on the other are occupied at equilibrium, for simple one-to-one binding) in [8] is not above 1000 nM; in assay [9], not below 1000 nM; in [10] it was not below 1000 nM; in assay [11] it was not above 1000 nM.
